Tests used:
AsPC-1 (KRAS G12D) cells = assay: 3D cell viability assay (spheroids, CellTiter-Glo 3D); type: cell-based; conditions: Homo sapiens, ASPC1, 96 h, AsPC-1 cells, 3D spheroids, 4 days
How it was run: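 AsPC-1 cells (1000/well) in DMEM with 10% FBS formed spheroids over 3 days at 37 °C in ultra-low attachment plates, then were treated with 1:3 serial dilutions for 4 days. Viability read by CellTiter-Glo 3D luminescence; EC50 as concentration giving 50% signal decrease, sigmoidal fit.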

GP2D (KRAS G12D) cells = assay: 2D cell viability assay (CellTiter-Glo); type: cell-based; conditions: GP2d, 96 h, 4 days
How it was run: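 GP2D (KRAS G12D) cells, 1000/well in RPMI + 10% FBS, were plated onto compound (1:3 DMSO series) and grown 4 days at 37 °C, 5% CO2 in 2D. CellTiter-Glo luminescence was read; EC50 is the concentration giving 50% signal decrease, from sigmoidal fit.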

GDP-loaded KRAS G12D = GDP-loaded KRAS G12D (Homo sapiens (Human), UniProt P01116, G12D); assay: KRAS G12D (GDP) biochemical assay (TR-FRET probe displacement); type: binding; conditions: 2 hours
How it was run: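 Compound pre-incubated 30 min with GDP-loaded KRAS G12D in 50 mM Hepes pH 7.4, 150 mM NaCl, 5 mM MgCl2, 0.005% Tween-20, then Eu-streptavidin and TR-FRET probe added. After 2 h at room temperature, TR-FRET ratio read; IC50 is 50% ratio decrease, sigmoidal fit.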

Chain of GDP-loaded KRAS G12D (P01116-2 other isoform, or with tags, fused parts or gaps G12D): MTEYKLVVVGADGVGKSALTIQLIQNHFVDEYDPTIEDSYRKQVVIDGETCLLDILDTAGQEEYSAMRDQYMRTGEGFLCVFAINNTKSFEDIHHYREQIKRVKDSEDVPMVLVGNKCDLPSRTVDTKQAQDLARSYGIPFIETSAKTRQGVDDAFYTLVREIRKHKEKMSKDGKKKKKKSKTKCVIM

SMILES	EC50 (AsPC-1 (KRAS G12D) cells)	EC50 (GP2D (KRAS G12D) cells)	IC50 (GDP-loaded KRAS G12D)
C#Cc1c(F)ccc2cc(O)cc(-c3nc4c5c(nc(OC[C@@]67CCCN6C[C@H](F)C7)nc5c3F)N3C[C@H]5CC[C@H](N5)[C@H]3CO4)c12 [Example 2, 5-ethynyl-6-fluoro-4-((5aS,6S,9R)-1-fluoro-12-(((2R,7aS)-2-fluorotetrahydro-1H-pyrrolizin-7a(5H)-yl)methoxy)-5a,6,7,8,9,1O-hexahydro-5H-4-oxa-3,10a,11,13,14-pentaaza-6,9-methanonaphtho[1,8-ab]heptalen-2-yl)naphthalen-2-ol]	42 nM	6 nM	0.2 nM
C#Cc1c(F)ccc2cc(O)cc(-c3cc4c5c(nc(OC[C@@]67CCCN6C[C@H](F)C7)nc5c3F)N3C[C@H]5CC[C@H](N5)[C@H]3CC4)c12 [Example 52, 5-ethynyl-6-fluoro-4-((1S,4R,14aR)-10-fluoro-8-(((2R,7aS)-2-fluorotetrahydro-1H-pyrrolizin-7a(5H)-yl)methoxy)-1,2,3,4,5,13,14,14a-octahydro-1,4-epiminoazepino[1′,2′:1,7]azepino[2,3,4-de]quinazolin-11-yl)naphthalen-2-ol]	7 nM	1 nM	0.1 nM
C#Cc1c(F)ccc2cc(O)cc(-c3nc4c5c(nc(OCC6(CN7CCCOCC7)CC6)nc5c3F)N3C[C@H]5CC[C@H](N5)[C@H]3CO4)c12 [Example 35, 4-((5aS,6S,9R)-12-((1-((1,4-oxazepan-4-yl)methyl)cyclopropyl)methoxy)-1-fluoro-5a,6,7,8,9,10-hexahydro-5H-4-oxa-3,10a,11,13,14-pentaaza-6,9-methanonaphtho[1,8-ab]heptalen-2-yl)-5-ethynyl-6-fluoronaphthalen-2-ol]	17 nM	6 nM	0.3 nM
Oc1cc(-c2nc3c4c(nc(OC[C@@]56CCCN5C[C@H](F)C6)nc4c2F)N2C[C@H]4CC[C@H](N4)[C@H]2CC3)c2c(OC(F)(F)F)c(F)ccc2c1 [Example 41, 6-fluoro-4-((5aR,6S,9R)-1-fluoro-12-(((2R,7aS)-2-fluorotetrahydro-1H-pyrrolizin-7a(5H)-yl)methoxy)-4,5,5a,6,7,8,9,10-octahydro-3,10a,11,13,14-pentaaza-6,9-methanonaphtho[1,8-ab]heptalen-2-yl)-5-(trifluoromethoxy)naphthalen-2-ol]	8 nM	3 nM	0.6 nM
Oc1cc(-c2nc3c4c(nc(OC[C@@]56CCCN5C[C@H](F)C6)nc4c2F)N2C[C@H]4CC[C@H](N4)[C@H]2CC3)c2c(F)c(Cl)ccc2c1 [Example 40, 6-chloro-5-fluoro-4-((5aR,6S,9R)-1-fluoro-12-(((2R,7aS)-2-fluorotetrahydro-1H-pyrrolizin-7a(5H)-yl)methoxy)-4,5,5a,6,7,8,9,10-octahydro-3,10a,11,13,14-pentaaza-6,9-methanonaphtho[1,8-ab]heptalen-2-yl)naphthalen-2-ol]	74 nM	19 nM	2 nM
C#Cc1c(F)ccc2cc(O)cc(-c3nc4c5c(nc(OCC6(CN7CC8CC(C8)C7)CC6)nc5c3F)N3C[C@H]5CC[C@H](N5)[C@H]3CC4)c12 [Example 179, 4-((5aR,6S,9R)-12-((1-((3-azabicyclo[3.1.1]heptan-3-yl)methyl)cyclopropyl)methoxy)-1-fluoro-4,5,5a,6,7,8,9,10-octahydro-3,10a,11,13,14-pentaaza-6,9-methanonaphtho[1,8-ab]heptalen-2-yl)-5-ethynyl-6-fluoronaphthalen-2-ol]	7.7 nM	0.4 nM	0.1 nM
C#Cc1c(F)ccc2cc(O)cc(-c3nc4c5c(nc(OC[C@@]67CCCN6[C@H](COc6cccc(S(F)(F)(F)(F)F)c6)CC7)nc5c3F)N3C[C@H]5CC[C@H](N5)[C@H]3CC4)c12 [Example 104, 5-ethynyl-6-fluoro-4-((5aR,6S,9R)-1-fluoro-12-(((3S,7aS)-3-((3-(pentafluoro-λ6-sulfaneyl)phenoxy)methyl)tetrahydro-1H-pyrrolizin-7a(5H)-yl)methoxy)-4,5,5a,6,7,8,9,10-octahydro-3,10a,11,13,14-pentaaza-6,9-methanonaphtho[1,8-ab]heptalen-2-yl)naphthalen-2-ol]	53 nM	8.7 nM	0.8 nM
Oc1cc(-c2nc3c4c(nc(OC[C@@]56CCCN5C[C@H](F)C6)nc4c2F)N2C[C@H]4CC[C@H](N4)[C@H]2CO3)c2c(F)c(F)ccc2c1 [Example 1, 5,6-difluoro-4-((5aS,6S,9R)-1-fluoro-12-(((2R,7aS)-2-fluorotetrahydro-1H-pyrrolizin-7a(5H)-yl)methoxy)-5a,6,7,8,9,10-hexahydro-5H-4-oxa-3,10a,11,13,14-pentaaza-6,9-methanonaphtho[1,8-ab]heptalen-2-yl)naphthalen-2-ol]	170 nM	19 nM	0.5 nM

Reference: US20230339981A1, “KRAS G12D MODULATING COMPOUNDS” (priority 2022, published 2023)
